Among the data in patent US20230310428A1, “EGFR INHIBITOR AND PREPARATION METHOD AND USE THEREOF” (HONGYUN BIOTECH CO., LTD., priority 2020, published 2023) are IC50 values, retold here.

A value given as a limit tells only on which side of the number the result lay.

Common to all, as to experiment: Growth inhibitory activity of compounds on BaF3 cell lines stably transfected with kinase (MTS, 48 h)
What all share (format): cell-based

The target of test [1] is T1, various mutants of kinase EGFR (BaF3 cell lines stably transfected with kinase) (Homo sapiens, UniProt P00533).
T1 construct: other: BaF3 cells stably transfected with EGFR Δ19Del; MTS, 48 h; other: BaF3 cell line stably transfected with EGFR Δ19Del
T1 sequence (P00533 with tags, fused parts or gaps DEL746-750): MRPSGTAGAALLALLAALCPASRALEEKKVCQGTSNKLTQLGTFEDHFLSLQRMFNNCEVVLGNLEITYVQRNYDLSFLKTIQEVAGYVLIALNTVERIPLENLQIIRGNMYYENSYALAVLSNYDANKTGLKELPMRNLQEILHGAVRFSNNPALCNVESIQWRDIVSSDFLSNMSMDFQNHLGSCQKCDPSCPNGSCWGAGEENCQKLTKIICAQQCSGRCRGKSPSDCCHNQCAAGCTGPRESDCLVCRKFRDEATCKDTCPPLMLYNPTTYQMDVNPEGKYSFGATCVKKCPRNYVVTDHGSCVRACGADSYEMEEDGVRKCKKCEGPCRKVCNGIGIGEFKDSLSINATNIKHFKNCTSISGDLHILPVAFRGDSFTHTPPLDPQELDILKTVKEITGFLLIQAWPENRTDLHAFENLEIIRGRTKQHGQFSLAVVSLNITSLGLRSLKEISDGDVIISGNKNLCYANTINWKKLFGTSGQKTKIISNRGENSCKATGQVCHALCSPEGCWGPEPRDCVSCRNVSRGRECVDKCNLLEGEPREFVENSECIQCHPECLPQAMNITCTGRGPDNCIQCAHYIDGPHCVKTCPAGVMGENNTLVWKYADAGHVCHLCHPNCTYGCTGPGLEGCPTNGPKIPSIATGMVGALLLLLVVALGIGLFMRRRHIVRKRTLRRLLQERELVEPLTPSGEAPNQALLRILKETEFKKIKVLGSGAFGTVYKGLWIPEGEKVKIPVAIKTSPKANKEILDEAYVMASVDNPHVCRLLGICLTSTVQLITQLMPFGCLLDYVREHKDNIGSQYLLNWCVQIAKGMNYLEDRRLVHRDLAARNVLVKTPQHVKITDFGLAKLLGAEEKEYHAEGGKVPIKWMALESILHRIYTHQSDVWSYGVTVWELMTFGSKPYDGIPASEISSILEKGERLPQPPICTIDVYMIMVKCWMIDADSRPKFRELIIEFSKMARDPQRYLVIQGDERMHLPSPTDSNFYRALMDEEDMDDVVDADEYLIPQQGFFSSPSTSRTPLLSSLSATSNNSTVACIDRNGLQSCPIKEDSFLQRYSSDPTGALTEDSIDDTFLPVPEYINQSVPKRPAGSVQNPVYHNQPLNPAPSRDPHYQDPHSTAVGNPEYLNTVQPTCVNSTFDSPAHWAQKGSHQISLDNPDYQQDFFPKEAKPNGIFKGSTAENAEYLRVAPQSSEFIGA
To be noted: BaF3 cell line stably transfected with EGFR Δ19Del, read-out: Δ19Del growth inhibitory activity IC50. In a few lines:
(§1)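 Growth is measured by MTS reduction (OD 490 nm) after 48 h compound exposure at up to 10 µM in 8 steps of 1/3. Inhibition is calculated against a 0.1% DMSO control and cell-free blank, and IC50 is derived from it.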

The target in test [2] is T2, various mutants of kinase EGFR (BaF3 cell lines stably transfected with kinase) (Homo sapiens, UniProt P00533, C797S/L858R/T790M).
T2 construct: expressed in transfected cells; host or cells: BaF3
As to conditions: BaF3 cell line stably transfected with EGFR L858R/T790M/C797S, read-out: L858R/T790M/ C797S growth inhibitory activity IC50. In a few lines: as §1

Test [3] deals with T3, various mutants of kinase EGFR (BaF3 cell lines stably transfected with kinase) (Homo sapiens, UniProt P00533, L858R).
T3 construct: expressed in transfected cells; host or cells: BaF3
T3 sequence (P00533 25-1210 L858R): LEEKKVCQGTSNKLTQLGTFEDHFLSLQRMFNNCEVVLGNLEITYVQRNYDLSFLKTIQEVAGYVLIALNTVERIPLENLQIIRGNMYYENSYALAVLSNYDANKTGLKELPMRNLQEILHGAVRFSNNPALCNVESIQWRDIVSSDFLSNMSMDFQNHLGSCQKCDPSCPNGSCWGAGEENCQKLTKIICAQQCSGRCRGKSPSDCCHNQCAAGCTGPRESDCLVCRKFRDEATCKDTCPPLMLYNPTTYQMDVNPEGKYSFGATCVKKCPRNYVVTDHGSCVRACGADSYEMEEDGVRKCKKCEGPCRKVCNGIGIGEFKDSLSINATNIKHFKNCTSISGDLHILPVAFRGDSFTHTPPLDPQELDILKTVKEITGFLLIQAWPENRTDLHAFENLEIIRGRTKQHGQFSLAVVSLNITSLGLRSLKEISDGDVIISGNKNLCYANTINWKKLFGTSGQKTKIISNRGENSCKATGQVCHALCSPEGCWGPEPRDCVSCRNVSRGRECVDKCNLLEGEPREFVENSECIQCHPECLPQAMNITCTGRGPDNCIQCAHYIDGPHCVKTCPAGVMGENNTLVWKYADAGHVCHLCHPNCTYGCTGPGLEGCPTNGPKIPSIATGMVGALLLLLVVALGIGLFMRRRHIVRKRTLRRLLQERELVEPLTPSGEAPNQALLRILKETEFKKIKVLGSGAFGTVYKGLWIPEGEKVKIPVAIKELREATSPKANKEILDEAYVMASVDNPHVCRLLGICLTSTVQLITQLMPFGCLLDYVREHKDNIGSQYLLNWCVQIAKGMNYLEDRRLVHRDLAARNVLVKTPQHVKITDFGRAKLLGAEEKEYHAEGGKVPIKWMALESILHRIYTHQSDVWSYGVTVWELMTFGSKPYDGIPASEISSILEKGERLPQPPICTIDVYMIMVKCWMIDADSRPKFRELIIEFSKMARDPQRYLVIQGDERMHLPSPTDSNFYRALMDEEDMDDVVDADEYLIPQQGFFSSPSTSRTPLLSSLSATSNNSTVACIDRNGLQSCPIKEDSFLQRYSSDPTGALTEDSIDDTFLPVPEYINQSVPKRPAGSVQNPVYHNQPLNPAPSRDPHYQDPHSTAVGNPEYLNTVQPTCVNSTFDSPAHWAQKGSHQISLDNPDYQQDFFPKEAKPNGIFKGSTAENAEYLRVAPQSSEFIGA
To be noted: BaF3 cell line stably transfected with EGFR L858R, read-out: L858R growth inhibitory activity IC50. The method in brief:
as §1

The target in test [4] is T4, various mutants of kinase EGFR (BaF3 cell lines stably transfected with kinase) (Homo sapiens, UniProt P00533, L858R/T790M).
T4 construct: expressed in transfected cells; host or cells: BaF3
T4 sequence (P00533 25-1210 T790M/L858R): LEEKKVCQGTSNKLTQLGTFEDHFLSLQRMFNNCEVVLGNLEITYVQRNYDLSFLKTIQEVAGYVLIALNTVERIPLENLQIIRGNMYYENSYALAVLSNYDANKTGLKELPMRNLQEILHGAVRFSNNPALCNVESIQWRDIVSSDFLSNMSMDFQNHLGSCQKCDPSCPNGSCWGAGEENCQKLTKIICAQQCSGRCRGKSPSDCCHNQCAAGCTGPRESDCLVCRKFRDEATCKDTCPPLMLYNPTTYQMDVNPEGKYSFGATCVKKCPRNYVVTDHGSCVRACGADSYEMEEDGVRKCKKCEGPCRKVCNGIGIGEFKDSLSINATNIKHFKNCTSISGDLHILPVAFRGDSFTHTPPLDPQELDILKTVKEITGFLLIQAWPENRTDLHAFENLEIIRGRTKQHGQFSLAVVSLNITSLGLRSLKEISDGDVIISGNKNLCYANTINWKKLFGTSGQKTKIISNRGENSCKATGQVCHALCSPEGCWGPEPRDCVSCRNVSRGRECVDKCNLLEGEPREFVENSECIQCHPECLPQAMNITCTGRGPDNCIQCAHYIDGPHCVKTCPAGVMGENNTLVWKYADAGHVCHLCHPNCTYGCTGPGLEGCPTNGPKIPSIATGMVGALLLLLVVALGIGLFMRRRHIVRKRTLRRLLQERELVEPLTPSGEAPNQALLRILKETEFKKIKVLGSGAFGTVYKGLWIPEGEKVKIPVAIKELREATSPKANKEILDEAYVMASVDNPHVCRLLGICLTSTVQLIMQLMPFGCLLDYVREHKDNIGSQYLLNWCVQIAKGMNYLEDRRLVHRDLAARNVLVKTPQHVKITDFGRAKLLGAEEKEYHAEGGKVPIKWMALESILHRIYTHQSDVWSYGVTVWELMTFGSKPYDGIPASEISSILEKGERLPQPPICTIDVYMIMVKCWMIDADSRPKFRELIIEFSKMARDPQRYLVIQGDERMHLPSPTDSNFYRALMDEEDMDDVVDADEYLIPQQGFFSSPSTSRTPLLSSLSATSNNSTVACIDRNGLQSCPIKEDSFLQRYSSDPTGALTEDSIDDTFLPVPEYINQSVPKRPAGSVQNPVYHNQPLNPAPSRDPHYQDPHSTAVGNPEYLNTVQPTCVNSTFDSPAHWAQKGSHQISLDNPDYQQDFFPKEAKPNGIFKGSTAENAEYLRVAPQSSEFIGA
To be noted: BaF3 cell line stably transfected with EGFR L858R/T790M, read-out: L858R/ T790M growth inhibitory activity IC50. The method in brief: as §1

For test [5], the target named is T5, various mutants of kinase EGFR (BaF3 cell lines stably transfected with kinase) (Homo sapiens, UniProt P00533, T790M/C797S, form not given).
T5 construct: other: BaF3 cells stably transfected with EGFR Δ19Del/T790M/C797S; MTS, 48; other: BaF3 cell line stably transfected with EGFR Δ19Del/T790M/C7
T5 sequence (P00533 with tags, fused parts or gaps DEL746-750/T790M/C797S, form open): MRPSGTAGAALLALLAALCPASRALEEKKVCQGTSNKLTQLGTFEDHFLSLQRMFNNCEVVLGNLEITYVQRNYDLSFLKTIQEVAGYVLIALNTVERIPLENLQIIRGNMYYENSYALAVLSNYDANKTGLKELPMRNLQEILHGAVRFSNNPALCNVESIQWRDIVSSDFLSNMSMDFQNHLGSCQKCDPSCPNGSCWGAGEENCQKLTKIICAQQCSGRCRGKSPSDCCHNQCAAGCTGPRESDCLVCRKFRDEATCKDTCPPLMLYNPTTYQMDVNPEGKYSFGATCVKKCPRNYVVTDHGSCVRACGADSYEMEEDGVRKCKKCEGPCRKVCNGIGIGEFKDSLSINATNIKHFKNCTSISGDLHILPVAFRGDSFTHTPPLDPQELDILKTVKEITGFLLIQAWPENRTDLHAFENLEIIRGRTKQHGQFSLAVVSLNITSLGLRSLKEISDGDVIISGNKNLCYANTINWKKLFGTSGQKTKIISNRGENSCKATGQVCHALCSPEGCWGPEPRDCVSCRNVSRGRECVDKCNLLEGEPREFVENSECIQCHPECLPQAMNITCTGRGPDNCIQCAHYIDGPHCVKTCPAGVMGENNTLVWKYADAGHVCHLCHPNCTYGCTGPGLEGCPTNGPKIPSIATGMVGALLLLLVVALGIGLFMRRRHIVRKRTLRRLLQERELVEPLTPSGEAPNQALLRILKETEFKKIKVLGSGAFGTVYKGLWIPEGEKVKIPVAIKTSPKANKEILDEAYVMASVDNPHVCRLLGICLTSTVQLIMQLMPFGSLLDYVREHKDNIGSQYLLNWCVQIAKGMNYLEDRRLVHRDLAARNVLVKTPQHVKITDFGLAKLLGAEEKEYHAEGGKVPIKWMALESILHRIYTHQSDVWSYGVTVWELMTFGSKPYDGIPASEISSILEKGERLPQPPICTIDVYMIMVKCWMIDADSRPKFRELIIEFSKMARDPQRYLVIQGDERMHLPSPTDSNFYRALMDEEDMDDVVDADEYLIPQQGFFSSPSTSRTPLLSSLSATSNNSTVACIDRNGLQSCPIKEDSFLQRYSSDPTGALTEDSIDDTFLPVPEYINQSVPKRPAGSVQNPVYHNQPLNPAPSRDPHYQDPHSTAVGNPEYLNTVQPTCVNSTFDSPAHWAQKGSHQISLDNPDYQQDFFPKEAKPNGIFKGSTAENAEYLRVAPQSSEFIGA
To be noted: BaF3 cell line stably transfected with EGFR Δ19Del/T790M/C797S, read-out: Δ19Del/T790M/ C797S growth inhibitory activity IC50. In a few lines:
as §1

In test [6] the target is T6, various mutants of kinase EGFR (BaF3 cell lines stably transfected with kinase) (Homo sapiens, UniProt P00533, T790M, form not given).
T6 construct: other: BaF3 cells stably transfected with EGFR Δ19Del/T790M; MTS, 48 h; other: BaF3 cell line stably transfected with EGFR Δ19Del/T790M; MTS, 48
To be noted: BaF3 cell line stably transfected with EGFR Δ19Del/T790M, read-out: Δ19Del/ T790M growth inhibitory activity IC50. The method in brief:
as §1

For the compound `CCc1cc(Nc2nc(Nc3ccc4nccnc4c3N(C)S(C)(=O)=O)c3cc[nH]c3n2)c(OC(F)(F)F)cc1N1CCC(N2CCN(C)CC2)CC1` [II-2-8], the IC50 is 50 to 500 nM in test [1]; at most 50 nM in test [2]; 50 to 500 nM in test [3]; 50 to 500 nM in test [4]; at most 50 nM in test [5]; at most 50 nM in test [6].
`C=Cc1cc(Nc2nc(Nc3ccc4nccnc4c3N(C)S(C)(=O)=O)c3cc[nH]c3n2)c(OC(F)(F)F)cc1N1CCC(N2CCN(C)CC2)CC1` [II-2-9]: the IC50 in test [1] is 50 to 500 nM; in test [2], at most 50 nM; in test [3], 50 to 500 nM; in test [4], at most 50 nM; in test [5], at most 50 nM; in test [6], at most 50 nM.
With `COc1cc(N2CCN(C)CC2)c(C)cc1Nc1nc(Nc2ccc3nccnc3c2N(C)S(C)(=O)=O)c2cc[nH]c2n1` [II-2-12], the IC50 in test [1] was 50 to 500 nM; in test [2], at most 50 nM; in test [3], 50 to 500 nM; in test [4], at most 50 nM; in test [5], at most 50 nM; in test [6], at most 50 nM.
`CCc1cc(Nc2nc(Nc3ccc4nccnc4c3N(C)S(C)(=O)=O)c3cc[nH]c3n2)c(OC)cc1N1CCC(N(C)C)C1` (stereo not drawn) [II-2-17]: the IC50 in test [1] is 500 to 2500 nM; in test [2] it was 50 to 500 nM; in test [3], 500 to 2500 nM; in test [4], 50 to 500 nM; in test [5], at most 50 nM; in test [6], 50 to 500 nM.
Regarding `COc1cc(N2CCC(N3CCN(C)CC3)CC2)ccc1Nc1nc(Nc2ccc3nccnc3c2N(C)S(C)(=O)=O)c2cc[nH]c2n1` [II-2-22], the IC50 in test [1] was 50 to 500 nM; in test [2], 50 to 500 nM; in test [3], 500 to 2500 nM; in test [4], at most 50 nM; in test [5] it was at most 50 nM; in test [6], 50 to 500 nM.
Consider `COc1ccc(N2CCC(O)CC2)cc1Nc1nc(Nc2ccc3nccnc3c2N(C)S(C)(=O)=O)c2cc[nH]c2n1` [II-2-23], for which the IC50 is 50 to 500 nM in test [1]; at most 50 nM in test [2]; 50 to 500 nM in test [3]; 50 to 500 nM in test [4]; at most 50 nM in test [5]; 50 to 500 nM in test [6].
